Here are results for four compounds from patent US5124352A, “Fat emulsions containing isocarbacyclin” (Teijin Limited, priority 1985, dated 1992).

One experiment deals with human platelets. In words: Time course of the formation of cyclic AMP using human platelets (production capability and maintenance of cyclic AMP). Type of experiment: cell-based. Particulars: for Relative value (C-AMP production): first time point of the series = 100; for C-AMP production: human platelets, 37° C. As for the experimental part:
The time course of the formation of cyclic AMP by the fat emulsion in the invention was determined using human platelets so as to compare with the time course of the compound which was not emulsified in fat. Human blood 50 ml was collected using 1 part of 3.8 % sodium citrate for 9 parts of blood. The blood sample was centrifuged at 1300 rpm for 10 minutes. The upper layer was taken out as PRP (platelet-rich plasma) and centrifuged at 3000 rpm for 20 minutes. The precipitate thus obtained (platelets) was suspended in 2 ml of Tris buffered solution-saline-glucose-EDTA (TSG-EDTA) (pH 7.4).
The fat emulsion, which had previously been transferred in a plastic tube containing 350 μl of TSG-EDIA and 50 μl of platelet suspension and incubated at 37° C., was supplemented with 50 μl of 5mM isobutylmethylxanthin dissolved in saline, and 2 minutes later, reactions were stopped with 0.5 ml of 10% trichloroacetic acid (TCA). The cells were destroyed by thawing the lyophilized specimen in order to release intracellular cyclic AMP. After removal of TCA with watersaturated ether, the content of C-AMP was determined by radio immunoassay technique.

In experiment [1] the test system is PRP (ADP platelet agglutination). Kind of experiment: ADP platelet agglutination inhibitory action by PRP. Type of experiment: cell-based. The arrangement: reference not given here. The following applies: 37° C., 0.025 μm filtrate. As to the method:
Fifty (50) μl of the fat emulsion obtained in Examples 1 and 2 was transferred into 950 μl of saline or 2 % bovine serum albumin (BSA) and incubated at 37° C. for 1, 3, and 10 minutes. Next, the ADP platelet agglutination inhibitory action by PRP was determined using the filtrate which had been passed through a 0.025 μm filter. A known quantity of the dilution before filtration was added to PRP and incubated at 37° C. for 1 minute. Thereafter, ADP agglutination was induced to construct a dose-response curve. The platelet agglutination inhibitory action was calculated from this curve.

Consider `CCCCCC(O)C=CC1C(O)CC2C=C(CCCCC(=O)O)CC21` (centres unmarked) [Compound (II), 16,17,18,19,20-pentanor-15-pentylisocarbacyclin], for which the results for the “Relative value (C-AMP production)” value in the experiment on human platelets (Time 10 min), with human platelets (Time 30 min) and in the experiment with human platelets (Time 60 min) were 100%, 74% and 27%, respectively. In addition, the C-AMP production in the experiment on human platelets (Time 10 min) is 430 pico mol; with human platelets (Time 30 min), 320 pico mol; in the experiment with human platelets (Time 60 min), 120 pico mol.

For `COC(=O)CCCC=C1OC2CC(O)C(C=CC(O)C3CCCC3)C2C1F` (centres unmarked) [Compound (III), 7-fluoro-16,17,18,19, 20-pentanor-15-cyclopentylprostacyclin methyl ester], the entries for the “Relative value (C-AMP production)” value in the experiment on human platelets (Time 30 min), in the experiment on human platelets (Time 60 min) and with human platelets (Time 120 min) were 100%, 90% and 40%, respectively. Besides, the C-AMP production with human platelets (Time 30 min) turned out to be 100 pico mol; in the experiment on human platelets (Time 60 min) it was 90 pico mol; in the experiment with human platelets (Time 120 min), 40 pico mol.

For `CCCCCC(O)C=CC1C(O)CC2C=C(CCCCC(=O)O)CC21` (stereo not drawn) [Compound (I), 9(0)-methano-Δ^6(9α) -PGI1], the “Platelet agglutination inhibitory action” value in experiment [1] (2% BSA, incubation time 1 min) came to 100.1%; in experiment [1] (2% BSA, incubation time 10 min) it was 107.7%; in experiment [1] (Saline, incubation time 10 min), 41.1%. Also, the “Relative value (C-AMP production)” value stood at 100% in the experiment on human platelets (Time 0 min), 63% in the experiment with human platelets (Time 30 min) and 31% in the experiment on human platelets (Time 60 min). For the same compound, the C-AMP production in the experiment with human platelets (Time 0 min) was 320 pico mol; in the experiment with human platelets (Time 30 min) it was 200 pico mol; with human platelets (Time 60 min), 100 pico mol.

For the compound `CCCCCC(O)C=CC1C(O)CC2C=C(CCCCC(=O)OC)CC21` (centres unmarked) [(IV), isocarbacyclin methyl ester], the “Platelet agglutination inhibitory action” value worked out at 65.4% in experiment [1] (2% BSA, incubation time 1 min) and 56.2% in experiment [1] (2% BSA, incubation time 10 min).
